Publication PMC12596731, “Cys–Lys stapling for unprotected peptides via tunable linkers” (National Science Review, 2025)

Test: Cys-Lys stapling of unprotected peptides with unsymmetrical linker (1.5 equiv): Cys thiol displaces phthalimide from N-thiophthalimide (disulfide, ~1 min), then ring closure by Lys amine attack on pentafluorophenyl ester with DIPEA (4 equiv)
Details: the molecule shown is the open-chain precursor, CH3CN:H2O 3:1, 25.0 °C, 0.167 h

Work on `CC(=O)N[C@@H](CCC(N)=O)C(=O)N[C@@H](CO)C(=O)N[C@@H](CCC(N)=O)C(=O)N[C@@H](CCC(N)=O)C(=O)N[C@H](C(=O)N[C@@H](Cc1ccccc1)C(=O)N[C@@H](CSS/C(=C/Cl)CCC(=O)Oc1c(F)c(F)c(F)c(F)c1F)C(=O)N[C@@H](CC(N)=O)C(=O)N[C@@H](CC(C)C)C(=O)N[C@@H](Cc1c[nH]c2ccccc12)C(=O)N[C@@H](CCCNC(=N)N)C(=O)N[C@@H](CC(C)C)C(=O)N[C@@H](CC(C)C)C(=O)N[C@@H](CCCCN)C(=O)N[C@@H](CCC(N)=O)C(=O)N[C@@H](CC(N)=O)C(N)=O)[C@@H](C)O` yielded a ring closure, isolated yield (34-membered ring) of 79%.

With `CC(=O)N[C@@H](CCC(N)=O)C(=O)N[C@@H](CO)C(=O)N[C@@H](CCC(N)=O)C(=O)N[C@@H](CCC(N)=O)C(=O)N[C@H](C(=O)N[C@@H](Cc1ccccc1)C(=O)N[C@@H](CSS/C(=C/Cl)CCCCC(=O)Oc1c(F)c(F)c(F)c(F)c1F)C(=O)N[C@@H](CC(N)=O)C(=O)N[C@@H](CC(C)C)C(=O)N[C@@H](Cc1c[nH]c2ccccc12)C(=O)N[C@@H](CCCNC(=N)N)C(=O)N[C@@H](CC(C)C)C(=O)N[C@@H](CC(C)C)C(=O)N[C@@H](CCCCN)C(=O)N[C@@H](CCC(N)=O)C(=O)N[C@@H](CC(N)=O)C(N)=O)[C@@H](C)O` the ring closure, isolated yield (36-membered ring) was 84%.

In the case of `CC(=O)N[C@@H](CCC(N)=O)C(=O)N[C@@H](CO)C(=O)N[C@@H](CCC(N)=O)C(=O)N[C@@H](CCC(N)=O)C(=O)N[C@H](C(=O)N[C@@H](Cc1ccccc1)C(=O)N[C@@H](CSS/C(=C/Cl)CCCCCC(=O)Oc1c(F)c(F)c(F)c(F)c1F)C(=O)N[C@@H](CC(N)=O)C(=O)N[C@@H](CC(C)C)C(=O)N[C@@H](Cc1c[nH]c2ccccc12)C(=O)N[C@@H](CCCNC(=N)N)C(=O)N[C@@H](CC(C)C)C(=O)N[C@@H](CC(C)C)C(=O)N[C@@H](CCCCN)C(=O)N[C@@H](CCC(N)=O)C(=O)N[C@@H](CC(N)=O)C(N)=O)[C@@H](C)O`, the ring closure, isolated yield (37-membered ring) was 78%.

With `CC(=O)N[C@@H](CCC(N)=O)C(=O)N[C@@H](CO)C(=O)N[C@@H](CCC(N)=O)C(=O)N[C@@H](CCC(N)=O)C(=O)N[C@H](C(=O)N[C@@H](Cc1ccccc1)C(=O)N[C@@H](CSS/C(=C/Cl)CCCCCCCCC(=O)Oc1c(F)c(F)c(F)c(F)c1F)C(=O)N[C@@H](CC(N)=O)C(=O)N[C@@H](CC(C)C)C(=O)N[C@@H](Cc1c[nH]c2ccccc12)C(=O)N[C@@H](CCCNC(=N)N)C(=O)N[C@@H](CC(C)C)C(=O)N[C@@H](CC(C)C)C(=O)N[C@@H](CCCCN)C(=O)N[C@@H](CCC(N)=O)C(=O)N[C@@H](CC(N)=O)C(N)=O)[C@@H](C)O` the ring closure, isolated yield (40-membered ring) was 75%.

For `CC(=O)N[C@@H](CCC(N)=O)C(=O)N[C@@H](CO)C(=O)N[C@@H](CCC(N)=O)C(=O)N[C@@H](CCC(N)=O)C(=O)N[C@H](C(=O)N[C@@H](Cc1ccccc1)C(=O)N[C@@H](CSS/C(=C/Cl)CCOc1ccc(C(=O)Oc2c(F)c(F)c(F)c(F)c2F)cc1)C(=O)N[C@@H](CC(N)=O)C(=O)N[C@@H](CC(C)C)C(=O)N[C@@H](Cc1c[nH]c2ccccc12)C(=O)N[C@@H](CCCNC(=N)N)C(=O)N[C@@H](CC(C)C)C(=O)N[C@@H](CC(C)C)C(=O)N[C@@H](CCCCN)C(=O)N[C@@H](CCC(N)=O)C(=O)N[C@@H](CC(N)=O)C(N)=O)[C@@H](C)O`, the ring closure, isolated yield (39-membered ring) was 68%.

With `CC(=O)N[C@@H](CCC(N)=O)C(=O)N[C@@H](CO)C(=O)N[C@@H](CCC(N)=O)C(=O)N[C@@H](CCC(N)=O)C(=O)N[C@H](C(=O)N[C@@H](Cc1ccccc1)C(=O)N[C@@H](CSS/C(=C/Cl)CCOc1cccc(C(=O)Oc2c(F)c(F)c(F)c(F)c2F)c1)C(=O)N[C@@H](CC(N)=O)C(=O)N[C@@H](CC(C)C)C(=O)N[C@@H](Cc1c[nH]c2ccccc12)C(=O)N[C@@H](CCCNC(=N)N)C(=O)N[C@@H](CC(C)C)C(=O)N[C@@H](CC(C)C)C(=O)N[C@@H](CCCCN)C(=O)N[C@@H](CCC(N)=O)C(=O)N[C@@H](CC(N)=O)C(N)=O)[C@@H](C)O` the ring closure, isolated yield (38-membered ring) was 85%.

For `CC(=O)N[C@@H](CCC(N)=O)C(=O)N[C@@H](CO)C(=O)N[C@@H](CCC(N)=O)C(=O)N[C@@H](CCC(N)=O)C(=O)N[C@H](C(=O)N[C@@H](Cc1ccccc1)C(=O)N[C@@H](CSS/C(=C/Cl)CCOc1ccccc1C(=O)Oc1c(F)c(F)c(F)c(F)c1F)C(=O)N[C@@H](CC(N)=O)C(=O)N[C@@H](CC(C)C)C(=O)N[C@@H](Cc1c[nH]c2ccccc12)C(=O)N[C@@H](CCCNC(=N)N)C(=O)N[C@@H](CC(C)C)C(=O)N[C@@H](CC(C)C)C(=O)N[C@@H](CCCCN)C(=O)N[C@@H](CCC(N)=O)C(=O)N[C@@H](CC(N)=O)C(N)=O)[C@@H](C)O`, the ring closure, isolated yield (37-membered ring) was 65%.

Compound `CC(=O)N[C@@H](CCC(N)=O)C(=O)N[C@@H](CO)C(=O)N[C@@H](CCC(N)=O)C(=O)N[C@@H](CCC(N)=O)C(=O)N[C@H](C(=O)N[C@@H](Cc1ccccc1)C(=O)N[C@@H](CSS/C(=C/Cl)COCC(=O)Oc1c(F)c(F)c(F)c(F)c1F)C(=O)N[C@@H](CC(N)=O)C(=O)N[C@@H](CC(C)C)C(=O)N[C@@H](Cc1c[nH]c2ccccc12)C(=O)N[C@@H](CCCNC(=N)N)C(=O)N[C@@H](CC(C)C)C(=O)N[C@@H](CC(C)C)C(=O)N[C@@H](CCCCN)C(=O)N[C@@H](CCC(N)=O)C(=O)N[C@@H](CC(N)=O)C(N)=O)[C@@H](C)O` has a ring closure, isolated yield (35-membered ring) of 89%.

Compound `CC(=O)N[C@H](C(=O)N[C@@H](CO)C(=O)N[C@@H](Cc1ccccc1)C(=O)N[C@@H](CCCCN)C(=O)N[C@@H](CCC(N)=O)C(=O)N[C@@H](Cc1ccc(O)cc1)C(=O)N[C@@H](Cc1c[nH]c2ccccc12)C(=O)N[C@@H](CSS/C(=C/Cl)CCC(=O)Oc1c(F)c(F)c(F)c(F)c1F)C(=O)N[C@@H](CC(C)C)C(=O)N[C@@H](CC(C)C)C(=O)N[C@@H](CO)C(=O)N[C@@H](CCCNC(=N)N)C(N)=O)[C@@H](C)O` has a ring closure, isolated yield (25-membered ring) of 69%.

In the case of `CC(=O)N[C@H](C(=O)N[C@@H](CO)C(=O)N[C@@H](Cc1ccccc1)C(=O)N[C@@H](CCCCN)C(=O)N[C@@H](CCC(N)=O)C(=O)N[C@@H](Cc1ccc(O)cc1)C(=O)N[C@@H](Cc1c[nH]c2ccccc12)C(=O)N[C@@H](CSS/C(=C/Cl)CCCC(=O)Oc1c(F)c(F)c(F)c(F)c1F)C(=O)N[C@@H](CC(C)C)C(=O)N[C@@H](CC(C)C)C(=O)N[C@@H](CO)C(=O)N[C@@H](CCCNC(=N)N)C(N)=O)[C@@H](C)O`, the ring closure, isolated yield (26-membered ring) was 85%.

`CC(=O)N[C@H](C(=O)N[C@@H](CO)C(=O)N[C@@H](Cc1ccccc1)C(=O)N[C@@H](CCCCN)C(=O)N[C@@H](CCC(N)=O)C(=O)N[C@@H](Cc1ccc(O)cc1)C(=O)N[C@@H](Cc1c[nH]c2ccccc12)C(=O)N[C@@H](CSS/C(=C/Cl)CCCCC(=O)Oc1c(F)c(F)c(F)c(F)c1F)C(=O)N[C@@H](CC(C)C)C(=O)N[C@@H](CC(C)C)C(=O)N[C@@H](CO)C(=O)N[C@@H](CCCNC(=N)N)C(N)=O)[C@@H](C)O` showed a ring closure, isolated yield (27-membered ring) of 76%.

Work on `CC(=O)N[C@H](C(=O)N[C@@H](CO)C(=O)N[C@@H](Cc1ccccc1)C(=O)N[C@@H](CCCCN)C(=O)N[C@@H](CCC(N)=O)C(=O)N[C@@H](Cc1ccc(O)cc1)C(=O)N[C@@H](Cc1c[nH]c2ccccc12)C(=O)N[C@@H](CSS/C(=C/Cl)CCCCCCCCC(=O)Oc1c(F)c(F)c(F)c(F)c1F)C(=O)N[C@@H](CC(C)C)C(=O)N[C@@H](CC(C)C)C(=O)N[C@@H](CO)C(=O)N[C@@H](CCCNC(=N)N)C(N)=O)[C@@H](C)O` yielded a ring closure, isolated yield (31-membered ring) of 68%.

With `CC(=O)N[C@H](C(=O)N[C@@H](CO)C(=O)N[C@@H](Cc1ccccc1)C(=O)N[C@@H](CCCCN)C(=O)N[C@@H](CCC(N)=O)C(=O)N[C@@H](Cc1ccc(O)cc1)C(=O)N[C@@H](Cc1c[nH]c2ccccc12)C(=O)N[C@@H](CSS/C(=C/Cl)CCOc1cccc(C(=O)Oc2c(F)c(F)c(F)c(F)c2F)c1)C(=O)N[C@@H](CC(C)C)C(=O)N[C@@H](CC(C)C)C(=O)N[C@@H](CO)C(=O)N[C@@H](CCCNC(=N)N)C(N)=O)[C@@H](C)O` the ring closure, isolated yield (29-membered ring) was 85%.

In the case of `CC(=O)N[C@H](C(=O)N[C@@H](CO)C(=O)N[C@@H](Cc1ccccc1)C(=O)N[C@@H](CCCCN)C(=O)N[C@@H](CCC(N)=O)C(=O)N[C@@H](Cc1ccc(O)cc1)C(=O)N[C@@H](Cc1c[nH]c2ccccc12)C(=O)N[C@@H](CSS/C(=C/Cl)CCOc1ccccc1C(=O)Oc1c(F)c(F)c(F)c(F)c1F)C(=O)N[C@@H](CC(C)C)C(=O)N[C@@H](CC(C)C)C(=O)N[C@@H](CO)C(=O)N[C@@H](CCCNC(=N)N)C(N)=O)[C@@H](C)O`, the ring closure, isolated yield (28-membered ring) was 82%.

For `CC(=O)N[C@H](C(=O)N[C@@H](CO)C(=O)N[C@@H](Cc1ccccc1)C(=O)N[C@@H](CCCCN)C(=O)N[C@@H](CCC(N)=O)C(=O)N[C@@H](Cc1ccc(O)cc1)C(=O)N[C@@H](Cc1c[nH]c2ccccc12)C(=O)N[C@@H](CSS/C(=C/Cl)COCC(=O)Oc1c(F)c(F)c(F)c(F)c1F)C(=O)N[C@@H](CC(C)C)C(=O)N[C@@H](CC(C)C)C(=O)N[C@@H](CO)C(=O)N[C@@H](CCCNC(=N)N)C(N)=O)[C@@H](C)O`, the ring closure, isolated yield (26-membered ring) was 78%.

Work on `CC(=O)N[C@H](C(=O)N[C@@H](CO)C(=O)N[C@@H](Cc1ccccc1)C(=O)N[C@@H](CCCCN)C(=O)N[C@@H](CCC(N)=O)C(=O)N[C@@H](Cc1ccc(O)cc1)C(=O)N[C@@H](Cc1c[nH]c2ccccc12)C(=O)N[C@@H](CSS/C(=C/Cl)c1cccc(C(=O)Oc2c(F)c(F)c(F)c(F)c2F)c1)C(=O)N[C@@H](CC(C)C)C(=O)N[C@@H](CC(C)C)C(=O)N[C@@H](CO)C(=O)N[C@@H](CCCNC(=N)N)C(N)=O)[C@@H](C)O` yielded a ring closure, isolated yield (26-membered ring) of 84%.
